{"source": "patent US6821986B2", "about": "“Amino acid derivatives and their use as medicines” (Societe de Conseils de Recherchet et E'Applications …, priority 2000, dated 2004)", "key": {"HT-22 cells": {"test_system": "HT-22 cells", "assay": "Protection of HT-22 cells from oxidation stress induced by glutamate (MTT viability)", "format": "cell-based", "settings": "Mus musculus, glutamate 5 mM, cell viability after 24 h by MTT", "method": "Study of the Effects on the Oxidation Stress Induced by Glutamate on Cells in Culture (HT-22).\nThe inhibitory activity of the products of the invention is determined by measuring their ability to protect the cells of a mouse hippocampal line (HT-22) from an oxidation stress caused by glutamate. The biosynthesis of glutathione, an essential element of cell detoxification of free radicals, requires the active transport of cystine to the interior of the cell. The glutamate by opposing the penetration of cystine causes a reduction in the level of glutathione which leads to the death of the cell due to oxidation stress (Demerlé-Pallardy, C. et al., J. Neurochem. (2000) 74, 2079-2086; Murphy, T. H. et al., Neuron, (1989) 2: 1547-1558). The cells are cultured at 37° C. in a DMEM medium with 10% of foetal calf serum added to it. The tests are carried out in 96-well plates containing 5000 cells per well. The glutamate (5 mM) is added to the medium containing or not containing the products to be tested. The cell viability is tested after 24 h by the MTT method (Hansen, M. B. et al., J Immunol. Methods (1989), 119, 203-210). The ability of the compounds to protect the cells from the toxic action of the glutamate is estimated in EC50, calculated relative to the viability of cells which have not been subjected to the action of glutamate considered as 100% viability."}, "[1]": {"target": "T1, neuronal constitutive NO synthase (Rattus norvegicus, UniProt P29476)", "T1 construct": "The reaction is initiated by adding 50 μl of homogenate; from tissue; host or cells: cerebellum of Sprague-Dawley rats (homogenate, centrifuged at 21000 g)", "assay": "Effects on neuronal constitutive NO synthase of a rat's cerebellum ([3H]L-arginine to [3H]L-citrulline conversion)", "format": "biochemical", "settings": "rat cerebellum homogenate, conversion of [3H]L-arginine to [3H]L-citrulline, 15 min", "method": "Study of the Effects on Neuronal Constitutive NO Synthase of a Rat's Cerebellum\nThe inhibitory activity of the products of the invention is determined by measuring their effects on the conversion by NO synthase of [^3H]L-arginine to [^3H]L-citrulline according to the modified method of Bredt and Snyder (Proc. Natl. Acad. Sci. USA, (1990) 87: 682-685). The cerebellums of Sprague-Dawley rats (300 g-Charles River) are rapidly removed, dissected at 4° C. and homogenized in a volume of extraction buffer (HEPES 50 mM, EDTA 1 mM, pH 7.4, pepstatin A […], leupeptin […]). The homogenates are then centrifuged at 21000 g for 15 min at 4° C. Dosage is carried out in glass test tubes in which 100 μl of incubation buffer containing 100 mM of HEPES (pH 7.4), 2 mM of EDTA, 2.5 mM of CaCl2, 2 mM of dithiotreitol, 2 mM of reduced NADPH and 10 μg/ml of calmodulin are distributed. 25 μl of a solution containing 100 nM of [^3H]L-arginine (Specific activity: 56.4 Ci/mmole, Amersham) and 40 μM of non-radioactive L-arginine is added. The reaction is initiated by adding 50 μl of homogenate, the final volume being 200 μl (the missing 25 μl are either water or the tested product). […] After passing the samples through a 1 ml column of DOWEX resin, the radioactivity is quantified by a liquid scintillation spectrometer."}}, "data": [{"molecule": "CN1CCc2cc(NC(=O)[C@@H](N)CCCNC(=N)N[N+](=O)[O-])ccc21", "note": "[Example 2, (2S)-2-amino-5-{[imino(2-oxido-2-oxohydrazino)methyl]amino}-N-(1-methyl-2,3-dihydro-1H-indol-5-yl)pentanamide]", "values": [{"measurement": "EC50", "setting": "HT-22 cells", "value": "< 25", "unit": "µM"}, {"measurement": "IC50", "setting": "[1]", "value": "< 10", "unit": "µM"}]}, {"molecule": "N=C(NCCC[C@H](N)C(=O)Nc1ccc(Nc2ccccc2)cc1)N[N+](=O)[O-]", "note": "[Example 1, (2S)-2-amino-N-(4-anilinophenyl)-5-{[imino(2-oxido-2-oxohydrazino)methyl]amino}pentanamide]", "values": [{"measurement": "EC50", "setting": "HT-22 cells", "value": "< 25", "unit": "µM"}, {"measurement": "IC50", "setting": "[1]", "value": "< 10", "unit": "µM"}]}]}
